# Assay results reported in PubChem BioAssay (NCI).
#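 At the GI50, growth is halved. At the TGI there is no net growth.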
# How the values were obtained:
# Test in all cases: NCI anticancer screen, dose series, 384-well format
# U251 glioblastoma = system: U251 glioblastoma
# NCI-H460 NSCLC = system: NCI-H460 NSCLC
# A498 renal = system: A498 renal
# KM12 colon = system: KM12 colon
# COLO 205 colon = system: COLO 205 colon
# OVCAR-4 ovarian = system: OVCAR-4 ovarian
# A549 NSCLC = system: A549 NSCLC
# HL-60(TB) leukemia = system: HL-60(TB) leukemia
# HOP-62 NSCLC = system: HOP-62 NSCLC
# SN12C renal = system: SN12C renal
# T-47D breast = system: T-47D breast
# NCI-H23 lung = system: NCI-H23 lung
# UACC-257 melanoma = system: UACC-257 melanoma
# HCT-116 colon = system: HCT-116 colon
# MDA-MB-435 melanoma = system: MDA-MB-435 melanoma
# TK-10 renal = system: TK-10 renal
# MOLT-4 leukemia = system: MOLT-4 leukemia
# M14 melanoma = system: M14 melanoma
# SF-268 CNS = system: SF-268 CNS
# PC-3 prostate = system: PC-3 prostate
# SK-MEL-28 melanoma = system: SK-MEL-28 melanoma
# SW-620 colon = system: SW-620 colon
# HOP-92 NSCLC = system: HOP-92 NSCLC
# SF-539 CNS = system: SF-539 CNS
# NCI-H522 lung = system: NCI-H522 lung
# SF-295 CNS = system: SF-295 CNS
# OVCAR-8 ovarian = system: OVCAR-8 ovarian
# CCRF-CEM leukemia = system: CCRF-CEM leukemia
# SK-OV-3 ovarian = system: SK-OV-3 ovarian
# NCI-H226 lung = system: NCI-H226 lung
# HT29 colon = system: HT29 colon
# SR leukemia = system: SR leukemia
# ACHN renal = system: ACHN renal
# UO-31 renal = system: UO-31 renal
# SNB-19 CNS = system: SNB-19 CNS
# IGROV1 ovarian = system: IGROV1 ovarian
# 786-0 renal = system: 786-0 renal
# SK-MEL-5 melanoma = system: SK-MEL-5 melanoma
# MALME-3M melanoma = system: MALME-3M melanoma
# NCI-H322M lung = system: NCI-H322M lung
# LOX IMVI melanoma = system: LOX IMVI melanoma
# RXF 393 renal = system: RXF 393 renal
# MDA-MB-468 breast = system: MDA-MB-468 breast
# EKVX NSCLC = system: EKVX NSCLC
# OVCAR-3 ovarian = system: OVCAR-3 ovarian
# SNB-75 CNS = system: SNB-75 CNS
# BT-549 breast = system: BT-549 breast
# OVCAR-5 ovarian = system: OVCAR-5 ovarian
# K-562 leukemia = system: K-562 leukemia
# RPMI-8226 leukemia = system: RPMI-8226 leukemia
# DU-145 prostate = system: DU-145 prostate
# HS 578T breast = system: HS 578T breast
# CAKI-1 renal = system: CAKI-1 renal
# NCI/ADR-RES ovarian = system: NCI/ADR-RES ovarian
# HCT-15 colon = system: HCT-15 colon
# HCC-2998 colon = system: HCC-2998 colon
# MDA-MB-231 breast = system: MDA-MB-231 breast
# MCF7 breast = system: MCF7 breast
structure (smiles),measurement,setting,value
C[C@H](Nc1ccc(C#N)n(C)c1=O)c1cc2cc(Cl)ccc2[nH]c1=O,GI50,U251 glioblastoma,31.2 µM
same,TGI,U251 glioblastoma,> 100 µM
same,GI50,NCI-H460 NSCLC,19.3 µM
same,TGI,NCI-H460 NSCLC,52 µM
same,GI50,A498 renal,29.6 µM
same,TGI,A498 renal,98 µM
same,GI50,KM12 colon,39.1 µM
same,TGI,KM12 colon,> 100 µM
same,GI50,COLO 205 colon,61.4 µM
same,TGI,COLO 205 colon,> 100 µM
same,GI50,OVCAR-4 ovarian,16.1 µM
same,TGI,OVCAR-4 ovarian,49.6 µM
same,GI50,A549 NSCLC,27.7 µM
same,TGI,A549 NSCLC,> 100 µM
same,GI50,HL-60(TB) leukemia,20.9 µM
same,TGI,HL-60(TB) leukemia,35.3 µM
same,GI50,HOP-62 NSCLC,16.4 µM
same,TGI,HOP-62 NSCLC,42.9 µM
same,GI50,SN12C renal,31.4 µM
same,TGI,SN12C renal,> 100 µM
same,GI50,T-47D breast,22.2 µM
same,TGI,T-47D breast,86.9 µM
same,GI50,NCI-H23 lung,25.3 µM
same,TGI,NCI-H23 lung,75.8 µM
same,GI50,UACC-257 melanoma,20.6 µM
same,TGI,UACC-257 melanoma,38.4 µM
same,GI50,HCT-116 colon,29.3 µM
same,TGI,HCT-116 colon,> 100 µM
same,GI50,MDA-MB-435 melanoma,30.6 µM
same,TGI,MDA-MB-435 melanoma,69.6 µM
same,GI50,TK-10 renal,32.5 µM
same,TGI,TK-10 renal,> 100 µM
same,GI50,MOLT-4 leukemia,12.4 µM
same,TGI,MOLT-4 leukemia,25.1 µM
same,GI50,M14 melanoma,46 µM
same,TGI,M14 melanoma,> 100 µM
same,GI50,SF-268 CNS,29.3 µM
same,TGI,SF-268 CNS,> 100 µM
same,GI50,PC-3 prostate,19.9 µM
same,TGI,PC-3 prostate,76.1 µM
same,GI50,SK-MEL-28 melanoma,36.2 µM
same,TGI,SK-MEL-28 melanoma,94 µM
same,GI50,SW-620 colon,52.9 µM
same,TGI,SW-620 colon,> 100 µM
same,GI50,HOP-92 NSCLC,22.8 µM
same,TGI,HOP-92 NSCLC,90.1 µM
same,GI50,SF-539 CNS,32.3 µM
same,TGI,SF-539 CNS,> 100 µM
same,GI50,NCI-H522 lung,27.6 µM
same,TGI,NCI-H522 lung,> 100 µM
same,GI50,SF-295 CNS,13.6 µM
same,TGI,SF-295 CNS,36.8 µM
same,GI50,OVCAR-8 ovarian,36.2 µM
same,TGI,OVCAR-8 ovarian,> 100 µM
same,GI50,CCRF-CEM leukemia,25.9 µM
same,TGI,CCRF-CEM leukemia,60.7 µM
same,GI50,SK-OV-3 ovarian,27.9 µM
same,TGI,SK-OV-3 ovarian,> 100 µM
same,GI50,NCI-H226 lung,13 µM
same,TGI,NCI-H226 lung,31 µM
same,GI50,HT29 colon,42.6 µM
same,TGI,HT29 colon,> 100 µM
same,GI50,SR leukemia,20.1 µM
same,TGI,SR leukemia,39.4 µM
same,GI50,ACHN renal,30.8 µM
same,TGI,ACHN renal,> 100 µM
same,GI50,UO-31 renal,33.8 µM
same,TGI,UO-31 renal,> 100 µM
same,GI50,SNB-19 CNS,41.6 µM
same,TGI,SNB-19 CNS,> 100 µM
same,GI50,IGROV1 ovarian,17 µM
same,TGI,IGROV1 ovarian,42.8 µM
same,GI50,786-0 renal,34 µM
same,TGI,786-0 renal,> 100 µM
same,GI50,SK-MEL-5 melanoma,15.4 µM
same,TGI,SK-MEL-5 melanoma,29 µM
same,GI50,MALME-3M melanoma,26.7 µM
same,TGI,MALME-3M melanoma,78.8 µM
same,GI50,NCI-H322M lung,33.2 µM
same,TGI,NCI-H322M lung,> 100 µM
same,GI50,LOX IMVI melanoma,26.4 µM
same,TGI,LOX IMVI melanoma,70.7 µM
same,GI50,RXF 393 renal,19.1 µM
same,TGI,RXF 393 renal,53 µM
same,GI50,MDA-MB-468 breast,12.7 µM
same,TGI,MDA-MB-468 breast,30.1 µM
same,GI50,EKVX NSCLC,26.3 µM
same,TGI,EKVX NSCLC,> 100 µM
same,GI50,OVCAR-3 ovarian,17.8 µM
same,TGI,OVCAR-3 ovarian,40.7 µM
same,GI50,SNB-75 CNS,20.3 µM
same,TGI,SNB-75 CNS,73.7 µM
same,GI50,BT-549 breast,19.4 µM
same,TGI,BT-549 breast,54.2 µM
same,GI50,OVCAR-5 ovarian,60.8 µM
same,TGI,OVCAR-5 ovarian,> 100 µM
same,GI50,K-562 leukemia,35.1 µM
same,TGI,K-562 leukemia,> 100 µM
same,GI50,RPMI-8226 leukemia,11.4 µM
same,TGI,RPMI-8226 leukemia,24.4 µM
same,GI50,DU-145 prostate,29.4 µM
same,TGI,DU-145 prostate,> 100 µM
same,GI50,HS 578T breast,21.4 µM
same,TGI,HS 578T breast,74 µM
same,GI50,CAKI-1 renal,31.1 µM
same,TGI,CAKI-1 renal,> 100 µM
same,GI50,NCI/ADR-RES ovarian,19.8 µM
same,TGI,NCI/ADR-RES ovarian,48.6 µM
same,GI50,HCT-15 colon,31.4 µM
same,TGI,HCT-15 colon,> 100 µM
same,GI50,HCC-2998 colon,16.4 µM
same,TGI,HCC-2998 colon,52.3 µM
same,GI50,MDA-MB-231 breast,34.5 µM
same,TGI,MDA-MB-231 breast,> 100 µM
same,GI50,MCF7 breast,24 µM
same,TGI,MCF7 breast,> 100 µM
